# “Also recorded” adds a separate entry of the source.
# System: cough and sputum production in a patient with chronic bronchitis
# Experiment: Use of KI-impregnated charcoal for treating a patient with chronic bronchitis
# Format: in vivo, human
# Conditions: one patient; capsule with 10 mg KI per day for one month
# From the text: A person has for several years experienced increasing problems with cough and mucous production for long periods. They were diagnosed as suffering from chronic bronchitis. They were prescribed standard treatment including corticosteroids, anti-cholinergics, beta2-stimulants and mucolytics such as acetylcysteine.
# Since the chronic bronchitis caused considerable inconvenience, they examined alternative ways to reduce the symptoms.
# To clarify if the improvement of the chronic bronchitis by KI-impregnated activated charcoal was caused by iodide, […] then took a capsule with 10 mg (which amount is considerably higher than the amount of iodide in the KI-impregnated activated charcoal, 300 mg×1.62%=4.9 mg) KI per day for one month.
# Finally, they once again took 300 mg activated charcoal impregnated with 1.6% KI in a 00 vegetable capsule for one month.
compound,measurement,value
"[I-].[K+] [KI, Potassium iodide]",Cough and sputum production,did not reduce the cough or sputum production at all; also recorded: no improvement of cough or sputum production
